Test results as given in patent EP4721737A1, “USE OF PHARMACEUTICAL COMPOSITION COMPRISING COMPOUND HAVING BIS(AZANYLYLIDENE) SULFONYL STRUCTURE FOR TREATING ANEMIA-RELATED DISEASES” (Scinnohub Pharmaceutical Co., Ltd., priority 2023, dated 2024).

Experiments:
recombinant human PKR = recombinant human PKR (Homo sapiens, UniProt P30613); assay: pyruvate kinase (PKR) activity test, activation of recombinant enzyme (fluorescence kit); format: biochemical
Method: To test the activation effect of the compound of the present disclosure on recombinant human PKR.
3.1 A recombinant human PKR enzyme solution was prepared at a concentration of 60 ng/well (a 20 µL reaction system), and 5 µL of the solution was added into each well of a black transparent bottom 384-well plate.
3.2 Compound solutions were prepared at different concentrations, with the final concentrations of 1000/300/100 nM (containing 1% DMSO). Each 5 µL of the compound solution was added into the plate in step 3.1 and mixed well. The plate was incubated at room temperature for 10 min.
3.3 A reaction system was prepared according to the instructions of a kit (as shown in the table below), and 10 µL of the reaction system was added into each well of the 384-well plate, and mixed uniformly with the solution in step 3.2.
3.4 The 384-well plate was placed on a microplate reader to detect the fluorescence value at 540/590 nm, where the value was read every 2 minutes and the detection was conducted continuously for 1 hour.
3.5 The Slope value within the detection time was calculated, and the 1% DMSO well was used as a control well to calculate a compound activation rate. Activation rate % = (Slopeofcompoundwell/Slopeofcontrolwell) × 100% [formula]
With the log value of the compound concentration as the X axis and the percentage activation rate as the Y axis, a dose-effect curve was fitted with the log(agonist) vs. response-variable slope of the analysis software GraphPad Prism 5, and the AC50 value of the activity of each compound against PKR was obtained. Y = min + (max−min)/(1+10^(∧)((LogAC50−X)×Hillslope)). [formula]

[1] = target: T1, PKR in ex vivo red blood cells from healthy individuals (Homo sapiens, UniProt P30613); assay: ex vivo pyruvate kinase (PKR) activity experiment, red blood cells of healthy individuals; format: cell-based; details: 3 hours co-cultivation
T1 construct: endogenous in cells; host or cells: human red blood cells isolated from fresh peripheral blood of healthy individuals
Method: To test the effects of the compound of the present disclosure on PKR activation in ex vivo red blood cells from healthy individuals and patients with thalassemia.
• i. 5 g of glucose, 85 mg of adenine, and 2.625 g of mannitol were weighed and added into a 50 mL centrifuge tube. 40 mL of PBS was added to dissolve (sonicate for 30 minutes until completely dissolved). The solution was filtered through a 0.22 µm filter, then added to 460 mL of sterile PBS and mixed thoroughly.
• i. Fresh human peripheral blood was collected. K2EDTA was used as the anticoagulant. 1 part anticoagulant with 9 parts blood was mixed, then centrifuged at 500 g for 10 minutes at room temperature to remove the plasma. • ii. Packed red blood cells: 1.5 volumes of PBS were added, then centrifuged at 2000 ×g for 5 minutes at room temperature. After centrifugation, the supernatant was removed. This step was repeated twice. • iii. Diluted red blood cells: 1.5 volumes of PBS were added, then resuspended and mixed thoroughly. • iv. The diluted red blood cells were slowly added to 0.5 volume of 70% isotonic solution (e.g., 7.5 mL of diluted red blood cells + 3 mL of 70% isotonic solution Percoll) and centrifuged at 4000 ×g for 20 minutes at 4°C. • v. The supernatant was removed. The red blood cells at the bottom were washed once with 4-5 mL of PBS to elute the Percoll gel, and then centrifuged at 2000 ×g for 5 minutes at room temperature. • vi. The supernatant was removed. The red blood cells were counted and then diluted in AGAM medium containing 10% FBS to a density of 2 × 10^8 cells/mL for storage at 4°C.
i. The red blood cells were seeded into a 96-well plate at a uniform density of 1 × 10^7 cells/mL, with 100 µL per well. The test compounds (dissolved in DMSO) were diluted and added to the cell culture medium, resulting in final compound concentrations of 3000, 1000, 300, 100, 10, 3, and 1 nM (with 1% DMSO). The cells and compounds were co-cultivated for 3 hours in a 37°C incubator with 5% CO2. Subsequently, the plate was centrifuged at 2000 g for 20 minutes, and the supernatant was discarded. 100 µL of red blood cell lysis buffer was added to the cell pellet, vortexed for 20 minutes, and centrifuged at 4000 g for 5 minutes. The supernatant was collected for analysis. ii. The reaction system was prepared according to the kit instructions (shown as the table below), 10 µL of the reaction system was added to each well of a 384-well plate, and 10 µL of red blood cell lysis buffer was took and mixed well (20 µL reaction system).
iii. A black, transparent-bottomed 384-well plate was placed in a microplate reader to measure fluorescence at 540/590 nm. The fluorescence was read every 2 minutes for 1 hour.
i. The Slope value was calculated over the assay time. Compound activation percentage was calculated using the 1% DMSO well as the control well. Activation percentage = (Slope of compound well / Slope of control well) × 100% ii. Dose-response curve was fit using the logarithmic compound concentration on the X-axis and the percent activation percentage on the Y-axis, the log(agonist) vs. response - variable slope function in GraphPad Prism 5 was used to determine the AC50 value for each compound on PKR activity. Y = min + (max−min)/(1+10^(∧)((LogAC50−X)×Hillslope)). [formula] The PKR agonist effects of the compound of the present disclosure on ex vivo red blood cells from healthy individuals and thalassemia patients were determined using the above assay. The AC50 values measured on ex vivo red blood cells from healthy individuals are as follows (A represents 0-100 nM, B represents 101-300 nM, and C represents 300-1000 nM): […]

T1 sequence (P30613 whole entry): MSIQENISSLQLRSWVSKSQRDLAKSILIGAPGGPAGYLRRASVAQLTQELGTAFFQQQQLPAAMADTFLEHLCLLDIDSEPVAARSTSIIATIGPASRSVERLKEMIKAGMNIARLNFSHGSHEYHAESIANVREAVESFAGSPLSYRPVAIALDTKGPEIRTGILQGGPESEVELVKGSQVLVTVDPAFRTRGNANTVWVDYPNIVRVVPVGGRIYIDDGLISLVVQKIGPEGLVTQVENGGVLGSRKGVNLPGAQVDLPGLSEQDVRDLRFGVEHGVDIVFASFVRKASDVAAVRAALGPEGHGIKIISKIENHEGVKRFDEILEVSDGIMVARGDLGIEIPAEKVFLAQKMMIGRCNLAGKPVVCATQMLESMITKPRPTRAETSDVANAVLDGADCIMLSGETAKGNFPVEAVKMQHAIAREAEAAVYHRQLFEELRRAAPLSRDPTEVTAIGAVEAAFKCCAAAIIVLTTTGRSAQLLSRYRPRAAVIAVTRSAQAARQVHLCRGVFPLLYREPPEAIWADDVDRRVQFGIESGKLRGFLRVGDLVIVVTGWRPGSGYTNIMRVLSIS
Sequence of recombinant human PKR (P30613 whole entry): as above

Structure (SMILES) | AC50 (recombinant human PKR) | AC50 [1]
O=C(C(CO)c1ccccc1)N1CC(=C2CN(S(=O)(=O)c3ccc(OC(F)F)cc3)C2)C1 (stereo not shown) [Compound 6, 1-(1'-((4-(difluoromethoxy)phenyl)sulfonyl)-1',4'-dihydro-2H,2'H-[3,3'-diazetidinylidene]-1(4H)-yl)-3-hydroxy-2-phenylpropan-1-one] | < 100 nM | 101 to 300 nM
O=C(C(O)c1ccccc1)N1CC(=C2CN(S(=O)(=O)c3ccc(OC(F)F)cc3)C2)C1 (stereo not shown) [Compound 8, 1-(1'-((4-(difluoromethoxy)phenyl)sulfonyl)-1',4'-dihydro-2H,2'H-[3,3'-diazetidinylidene]-1(4H)-yl)-2-hydroxy-2-phenylethan-1-one] | 300 to 1000 nM | < 100 nM
O=C(N1CC(=C2CN(S(=O)(=O)c3ccc(OC(F)F)cc3)C2)C1)C1(c2ccccc2)CCOCC1 [Compound 14, (1'-((4-(difluoromethoxy)phenyl)sulfonyl)-1',4'-dihydro-2H,2'H-[3,3'-diazetidinylidene]-1(4H)-yl)(4-phenyltetrahydro-2H-pyran-4-yl)methanone] | 101 to 300 nM | 101 to 300 nM
O=C(C(CO)c1ccc(F)cc1)N1CC(=C2CN(S(=O)(=O)c3ccc4c(c3)OCCO4)C2)C1 (stereo not shown) [Compound 18, 1-(1'-((2,3-dihydrobenzo[b][1,4]dioxin-6-yl)sulfonyl)-1',4'-dihydro-2H,2'H-[3,3'-diazetidinylidene]-1 (4H)-yl)-2-(4-fluorophenyl)-3-hydroxypropan-1-one] | < 100 nM | < 100 nM
O=C(C(CO)c1ccc(F)cc1)N1CC(=C2CN(S(=O)(=O)c3cnc4c(c3)OCCO4)C2)C1 (stereo not shown) [Compound 19, 1-(1'-((2,3-dihydro-[1,4]dioxolane[2,3-b]pyridin-7-yl)sulfonyl)-1',4'-dihydro-2H,2'H-[3,3'-diazetidinylidene]-1(4H)-yl)-2-(4-fluorophenyl)-3-hydroxypropan-1-one] | 101 to 300 nM | 300 to 1000 nM
O=C([C@H](CO)c1ccccc1)N1CC(=C2CN(S(=O)(=O)c3cccnc3)C2)C1 [Compound 68, (S)-3-hydroxy-2-phenyl-1-(1'-(pyridin-3-ylsulfonyl)-1',4'-dihydro-2H,2'H-[3,3'-diazetidinylidene]-1(4H)-yl)propane-1-one] | – | 101 to 300 nM

Results, then the compound that gave them:

AC50 (recombinant human PKR) | AC50 [1] | Structure (SMILES)
– | 101 to 300 nM | N#Cc1ccc(S(=O)(=O)N2CC(=C3CN(C(=O)[C@H](CO)c4ccccc4)C3)C2)nc1 [Compound 70, (S)-6-((1'-(3-hydroxy-2-phenylpropionyl)-1',4'-dihydro-2H,2'H-[3,3'-diazetidinylidene]-1(4H)-yl)sulfonyl)nicotinonitrile]
– | 101 to 300 nM | O=C(C(CO)c1ccc(C(F)F)cc1)N1CC(=C2CN(S(=O)(=O)c3ccccn3)C2)C1 (stereo not shown) [Compound 71, 2-(4-(difluoromethyl)phenyl)-3-hydroxy-1-(1'-(pyridin-2-ylsulfonyl)-1',4'-dihydro-2H,2'H-[3,3'-diazetidinylidene]-1(4H)-y 1)propan-1-one]
– | 300 to 1000 nM | CC(C)Oc1ccc(S(=O)(=O)N2CC(=C3CN(C(=O)[C@H](CO)c4ccccc4)C3)C2)nc1 [Compound 81, (S)-3-hydroxy-1-(1'-((5-isopropoxypyridin-2-yl)sulfonyl)-1',4'-dihydro-2H,2'H-[3,3'-diazetidinylidene]-1(4H)-yl)-2-phenylpropan-1-one]
– | 101 to 300 nM | O=C([C@H](CO)c1ccccc1)N1CC(=C2CN(S(=O)(=O)c3ccc(OC4CC4)cn3)C2)C1 [Compound 82, (S)-1-(1'-((5-cyclopropoxypyridin-2-yl)sulfonyl)-1',4'-dihydro-2H,2'H-[3,3'-diazetidinylidene]-1(4H) -yl)-3-hydroxy-2-phenylpropan-1-one]
– | 300 to 1000 nM | O=C(C(CO)C1CCCCC1)N1CC(=C2CN(S(=O)(=O)c3ccccn3)C2)C1 (stereo not shown) [Compound 90, 2-cyclohexyl-3-hydroxy-1-(1'-(pyridin-2-ylsulfonyl)-1',4'-dihydro-2H,2'H-[3,3'-diazetidinylidene]-1(4H)-yl)propan-1-one]
